Several values for one entry are separate records, joined by “and”; a condition that tells them apart may be missing. Equal values may be shown once.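 A five-concentration, 48-hour dose response in 96-well plates underlies each endpoint, interpolated linearly between surrounding concentrations. The concentration for 50% growth inhibition is given as GI50. Definition used: TGI = concentration required for complete inhibition of growth.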
Key:
Experiment in all cases: NCI-60 cell line screen, 48 h
IGROV1 ovarian = system: IGROV1 ovarian
PC-3 prostate = system: PC-3 prostate
NCI-H460 lung = system: NCI-H460 lung
LOX IMVI melanoma = system: LOX IMVI melanoma
HT29 colon = system: HT29 colon
SK-MEL-5 melanoma = system: SK-MEL-5 melanoma
K-562 leukemia = system: K-562 leukemia
NCI-H23 lung = system: NCI-H23 lung
BT-549 breast = system: BT-549 breast
NCI-H226 lung = system: NCI-H226 lung

Row | Compound | GI50 (IGROV1 ovarian) | TGI (IGROV1 ovarian) | GI50 (PC-3 prostate) | TGI (PC-3 prostate) | GI50 (NCI-H460 lung) | TGI (NCI-H460 lung) | GI50 (LOX IMVI melanoma) | TGI (LOX IMVI melanoma) | GI50 (HT29 colon) | TGI (HT29 colon) | GI50 (SK-MEL-5 melanoma) | TGI (SK-MEL-5 melanoma) | GI50 (K-562 leukemia) | TGI (K-562 leukemia) | GI50 (NCI-H23 lung) | TGI (NCI-H23 lung) | GI50 (BT-549 breast) | TGI (BT-549 breast) | GI50 (NCI-H226 lung) [µM] | TGI (NCI-H226 lung) [µM]
1 | C=C(C)[C@@H]1CC[C@]2(C(=O)OC)CC[C@]3(C)[C@H](CC[C@@H]4[C@@](C)(CCc5nn[nH]n5)[C@H](C(=C)C)CC[C@]43C)[C@@H]12 | 17.4 µM | 46.2 µM | 3.46 µM | 17.2 µM | 20.5 µM | 44 µM | 16 µM | 29.5 µM | 20.6 µM | 73.3 µM | 11.4 µM | 24.4 µM | 18.4 µM | > 100 µM | 16.4 µM | 39.4 µM | 33.2 µM | > 100 µM | 15.3 | 47.7
2 | CC(=O)Nc1ccc(CC[C@H]2CCC/C=C/[C@@H]3C[C@H](O)C[C@H]3[C@H](O)/C=C/C(=O)O2)cc1 | 0.0887 µM | 0.237 µM | 0.353 µM | > 100 µM | 0.365 µM | > 100 µM | 0.0912 µM | 0.405 µM | 0.119 µM | 0.951 µM | 0.0188 µM | 0.0348 µM | 0.392 µM | > 100 µM | 0.188 µM | 0.759 µM | 0.182 µM | > 100 µM | 0.0667 | 0.295
3 | COc1cc2c(cc1OCCCCCOc1ccc(-c3nc4ccccc4s3)cc1)N=C[C@@H]1CCCN1C2=O | 4.39 µM | 43.5 µM | 1.14 µM | 7.04 µM | 1.27 µM | 7.66 µM | 0.983 µM | 4.37 µM | 1.58 µM | 18 µM | 0.934 µM | 3.88 µM | 0.914 µM | 12.2 µM | 2.6 µM | 10.5 µM | 3.45 µM | 16.4 µM | 3.02 | 10.4
4 | O=C(Nc1ccccc1/C=C/c1n[nH]c2ccccc12)c1ccccc1 | 6.47 µM | 22.4 µM | 2.15 µM | 7.58 µM | 2.15 µM | 11.2 µM | 2.48 µM | 11.4 µM | 1.78 µM | 7 µM | 3.81 µM | 16.5 µM | 3.47 µM | 12.6 µM | 2.2 µM | 17.6 µM | 3.97 µM | 16.1 µM | 1.09 | 11.5
5 | CC[C@@H]1C(=O)N(C)c2cnc(Nc3ccc(C(=O)NC4CCC(N5CCN(CC6CC6)CC5)CC4)cc3OC)nc2N1C(C)C (some centres not stated) | 0.0418 µM and 0.0524 µM | > 10 µM and 7.22 µM | 0.0287 µM and 0.0366 µM | > 10 µM and 17.7 µM | 0.0123 µM and 0.0297 µM | > 10 µM and 1.86 µM | 0.0254 µM and 0.0339 µM | 1.6 µM and 1.67 µM | 0.00436 µM and < 0.01 µM | 2.07 µM and 1.35 µM | 0.0409 µM and 0.0472 µM | 0.517 µM and 0.654 µM | 0.00946 µM and 0.0288 µM | > 10 µM and 1.83 µM | 0.0158 µM and 0.028 µM | > 10 µM and 2.99 µM | 0.078 µM and 0.0387 µM | > 10 µM and 6.44 µM |  | > 10
6 | COc1cc(OC)c(OC)cc1/C=C/c1ccccn1 |  | > 10 µM |  | > 10 µM |  | > 10 µM |  | > 10 µM |  | > 10 µM |  | > 10 µM |  | > 10 µM |  | > 10 µM |  | > 10 µM |  | > 10
7 | Cc1cc(NC(=O)NCCCOc2ccc(N3C(N)=NC(N)=NC3(C)C)cc2Cl)ccc1S(=O)(=O)F | 0.332 µM | > 68.8 µM | 0.376 µM | 44 µM | 0.259 µM | 14.7 µM | 0.479 µM | > 100 µM | 0.333 µM | 53.9 µM | 0.492 µM | 11.1 µM | 0.318 µM | > 100 µM | 0.951 µM | > 66.8 µM | 4.85 µM | 21.7 µM | 12.6 | > 100
8 | COc1ccc(-c2cc(=O)c3c(C)ccnc3[nH]2)cc1 |  | > 100 µM | 18.1 µM | > 100 µM | 6.19 µM | > 100 µM |  | > 100 µM |  | 40.5 µM | 3.87 µM | 14.7 µM |  | > 100 µM |  | 65.2 µM |  | 67.3 µM |  | > 100
9 | CCCN1CCC(Oc2cc(Nc3nc(Nc4cccc(F)c4C(N)=O)c4cc[nH]c4n3)c(OC)cc2Cl)CC1 | 3.86 µM | 9.22 µM | 2.55 µM | 6.73 µM | 1.45 µM | 4.79 µM | 1.57 µM | 5.31 µM | 0.565 µM | 1.6 µM | 1.23 µM | 2.67 µM | 0.62 µM | 1.73 µM | 3.49 µM | 8.26 µM | 3.75 µM | 7.36 µM | 3.64 | 10.7
10 | N#Cc1nc2cc(Cl)c(Cl)cc2nc1-c1ccc(Cl)cc1 | 73.2 µM | > 100 µM | 34.8 µM | > 67.7 µM | 37.6 µM | > 100 µM | 71 µM | > 100 µM | > 100 µM | > 100 µM | 44.3 µM | > 100 µM | > 56.1 µM | > 100 µM | > 60.5 µM | > 100 µM | > 100 µM | > 100 µM | 21.7 | > 61.6
11 | CN1CCN(CCCOC(=O)c2c3c(n4ccccc24)C(=O)c2ncccc2C3=O)CC1 | < 0.0194 µM | 4.71 µM | < 0.0232 µM | 16.7 µM | < 0.01 µM | < 0.0118 µM | < 0.01 µM | 0.0334 µM | 0.164 µM | 2.18 µM | 0.0269 µM | 0.592 µM | < 0.0113 µM |  | < 0.01 µM | < 0.0172 µM | 0.426 µM | 16.3 µM | 0.0178 | 1.08
12 | O=C(c1ccccc1)c1nc2ccc(Cl)cc2cc1C(Br)Br |  | 4.38 µM |  | 0.744 µM |  | 1.31 µM |  | 3.7 µM |  | 0.743 µM |  | 2.01 µM |  | 3.55 µM |  | 1.11 µM |  | 1.12 µM |  | 3.26
13 | C[C@]12CC[C@H]3[C@@H](CCC4=CC(=O)CC[C@@]43C)[C@]1(O)CC[C@]2(O)C(=O)CO |  | > 100 µM |  | > 100 µM |  | > 100 µM |  | > 100 µM |  | > 100 µM |  | > 100 µM |  | > 100 µM |  | > 100 µM |  | > 100 µM |  | > 100
14 | COc1cc(-c2csc(NC(=O)Nc3ccc(Cl)cc3)n2)cc(OC)c1OC | 3.18 µM | 29.5 µM | 2.4 µM | 8.39 µM | 3.32 µM | > 48.4 µM | 2.59 µM | 7.59 µM | 3.01 µM | 12.4 µM | 2.2 µM | 5.2 µM | 3.38 µM | > 100 µM | 2.54 µM | 10.9 µM | 2.18 µM | 6.26 µM | 3.22 | 10.7
15 | COc1ccc(-c2nn3ncccc3c2-c2ccnc(Nc3ccc(F)c(F)c3)n2)cc1 | 8.47 µM | 24.5 µM | 8.7 µM | > 25 µM | 7.4 µM | > 25 µM | 7.42 µM | > 25 µM | 5.43 µM | > 25 µM | 8.08 µM | > 25 µM | 6.57 µM | > 25 µM | 11.5 µM | > 25 µM | 15 µM | > 25 µM | 13.9 | > 25
16 | Clc1cccc(-c2cc(-c3ccc4c(c3)OCCO4)[nH]n2)c1 | 2.47 µM | 36.7 µM | 4.87 µM | 45.8 µM | 1.01 µM | 31.8 µM | 4.43 µM | 39.4 µM | 0.952 µM | 31.6 µM | 5.9 µM | 39.1 µM | 1.04 µM | 250 µM | 8.66 µM | 57.4 µM | 6.32 µM | 47 µM | 29.5 | 92.1
17 | CC(C)OC(=O)Nc1c([N+](=O)[O-])cc(C(F)(F)F)cc1[N+](=O)[O-] |  | > 100 µM |  | > 100 µM |  | > 100 µM |  | > 100 µM |  | > 100 µM |  | > 100 µM |  | > 46.4 µM |  | > 100 µM |  | > 100 µM |  | > 100
18 | COc1ccc2c(c1[N+](=O)[O-])CC[C@@H]1[C@@H]2CC[C@]2(C)C(=O)CC[C@@H]12 | 741 µM | > 1000 µM | > 684 µM |  | > 756 µM |  | 434 µM | > 1000 µM | > 1000 µM | > 1000 µM | 502 µM | > 1000 µM | > 1000 µM |  | 679 µM | > 1000 µM | 470 µM | > 1000 µM | 494 | 
19 | Clc1ccc2c(NCCCCNc3nc(N4CCOCC4)nc4ccccc34)ccnc2c1 | 2.99 µM | 11.5 µM | 6.37 µM | 19.5 µM | 2.22 µM | 5.22 µM | 1.73 µM | 3.25 µM | 2.61 µM | 7.14 µM | 1.83 µM | 3.3 µM | 1.43 µM | 11.2 µM | 5.68 µM | 23.2 µM | 2.96 µM | 9.42 µM | 1.72 | 3.68
